# Like-named read-outs stand apart in the source and are kept apart here.
# Legend:
# [1] = biological target: B-Raf (Homo sapiens, UniProt P15056); assay: Luciferase-coupled chemiluminescence kinase assay (ATP consumption), B-Raf; type: biochemical
# Procedure: (§1) Tyrosine kinase activity is determined by 1) measurement of kinase-dependent ATP consumption by in the presence of a generic substrate such as […], tyrosine (pEY), by luciferase/luciferin-mediated chemiluminescence or; 2) incorporation of radioactive phosphate derived from ^33P-ATP into a generic substrate which has been adsorbed onto the well surface of polystyrene microtiter plates. Phosphorylated substrate products are quantified by scintillation spectrometry.
# (§2) Luciferase-Coupled Chemiluminescence Assay Protocol
# (§3) Kinase activity is measured as the percent of ATP consumed following the kinase reaction using luciferase-luciferin-coupled chemiluminescence. Reactions were conducted in 384-well white, medium binding microtiter plates (Greiner). Kinase reactions were initiated by combining test compounds, ATP and kinase in a 20 uL volume. The reaction mixture was incubated at ambient temperature for 3 hrs. For c-Raf, B-Raf, and B-RafV599E, […] of the enzyme was pre-incubated with compound in 20 mM Tris pH 7.5, 10 mM MgCl2, 0.03% TX-100, and 1 mM DTT for 30 minutes at room temperature. Following the kinase reaction, a 20 μL aliquot of luciferase-luciferin mix was added and the chemiluminescence signal measured using a Victor^2 plate reader (Perkin Elmer). The luciferase-luciferin mix contained 50 mM HEPES, pH 7.8, 67 mM oxalic acid (pH 7.8), 5 (or 50) mM DTT, 0.4% Triton X-100, 0.25 mg/mL coenzyme A, 63 μM AMP, 28 μg/mL luciferin and 40,000 units/mL luciferase. Total ATP consumption was limited to 25-60% and the IC50 values correlate well with those determined by radiometric assays.
# [2] = biological target: c-Raf (Homo sapiens, UniProt P04049); assay: Luciferase-coupled chemiluminescence kinase assay (ATP consumption), c-Raf; type: biochemical
# Procedure: as §1, §2, §3
# [3] = read-out: bRaf (inhibition indicated as IC50)
# [4] = read-out: cRaf-1 (inhibition indicated as IC50)
# Chain of B-Raf (P15056 whole entry): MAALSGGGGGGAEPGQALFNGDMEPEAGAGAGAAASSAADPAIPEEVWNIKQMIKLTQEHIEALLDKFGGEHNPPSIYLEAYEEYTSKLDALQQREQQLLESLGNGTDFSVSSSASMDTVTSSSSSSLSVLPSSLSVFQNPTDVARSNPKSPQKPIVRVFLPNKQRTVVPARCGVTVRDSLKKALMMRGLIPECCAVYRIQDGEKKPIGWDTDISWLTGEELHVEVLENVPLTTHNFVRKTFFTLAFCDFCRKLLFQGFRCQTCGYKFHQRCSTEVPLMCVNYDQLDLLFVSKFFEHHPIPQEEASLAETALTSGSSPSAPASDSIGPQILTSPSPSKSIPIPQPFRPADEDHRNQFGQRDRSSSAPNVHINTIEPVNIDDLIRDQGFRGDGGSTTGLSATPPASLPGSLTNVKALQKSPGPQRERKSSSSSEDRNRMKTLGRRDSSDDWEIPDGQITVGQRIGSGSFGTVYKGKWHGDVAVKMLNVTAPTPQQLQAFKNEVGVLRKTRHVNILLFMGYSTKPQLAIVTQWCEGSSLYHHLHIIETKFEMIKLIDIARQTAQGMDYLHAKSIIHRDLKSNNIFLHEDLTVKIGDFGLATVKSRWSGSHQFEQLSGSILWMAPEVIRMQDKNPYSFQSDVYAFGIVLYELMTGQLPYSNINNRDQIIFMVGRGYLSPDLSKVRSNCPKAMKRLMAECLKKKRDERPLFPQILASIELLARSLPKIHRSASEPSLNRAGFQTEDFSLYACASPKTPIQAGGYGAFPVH
# Chain of c-Raf (P04049 whole entry): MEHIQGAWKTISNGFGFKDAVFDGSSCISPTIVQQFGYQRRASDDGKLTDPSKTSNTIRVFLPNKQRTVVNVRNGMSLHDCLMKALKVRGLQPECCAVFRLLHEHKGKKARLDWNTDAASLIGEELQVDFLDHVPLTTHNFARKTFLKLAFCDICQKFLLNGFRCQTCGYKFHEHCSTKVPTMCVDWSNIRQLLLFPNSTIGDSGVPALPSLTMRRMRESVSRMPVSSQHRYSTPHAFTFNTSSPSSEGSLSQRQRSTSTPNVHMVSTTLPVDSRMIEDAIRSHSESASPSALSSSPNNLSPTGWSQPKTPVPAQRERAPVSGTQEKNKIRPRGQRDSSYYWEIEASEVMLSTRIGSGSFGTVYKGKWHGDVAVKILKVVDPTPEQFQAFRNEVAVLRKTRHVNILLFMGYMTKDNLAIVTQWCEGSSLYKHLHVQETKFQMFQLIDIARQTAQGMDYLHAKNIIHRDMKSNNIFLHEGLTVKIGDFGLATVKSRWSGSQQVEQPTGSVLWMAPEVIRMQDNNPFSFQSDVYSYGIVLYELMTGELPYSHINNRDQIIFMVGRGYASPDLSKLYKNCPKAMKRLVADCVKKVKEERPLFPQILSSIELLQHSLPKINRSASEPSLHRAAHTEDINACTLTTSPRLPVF
Compound,IC50 ([1]; read-out: bRaf IC50) [nM],IC50 ([2]; read-out: cRaf-1 IC50) [nM],"IC50 [1, 3] [nM]","IC50 [2, 4] [nM]"
"COC(=O)Nc1nc2cc(C3(O)c4ccccc4C(=O)N3c3cccc(C(=O)c4ccccc4)c3)ccc2[nH]1 (centres unmarked) [Entry 234, methyl (5-{1-hydroxy-3-oxo-2-[3-(phenylcarbonyl)phenyl]-2,3-dihydro-1H-isoindol-1-yl}-1H-benzimidazol-2-yl)carbamate]",1000 to 10000,100 to 1000,,
"COC(=O)Nc1nc2cc(C3(O)c4c(F)cccc4C(=O)N3c3cc(Cl)ccc3C)ccc2[nH]1 (centres unmarked) [Entry 371, methyl {5-[2-(5-chloro-2-methylphenyl)-7-fluoro-1-hydroxy-3-oxo-2,3-dihydro-1H-isoindol-1-yl]-1H-benzimidazol-2-yl}carbamate]",,,< 100,< 100
"COC(=O)Nc1nc2cc(C3(O)c4ccccc4C(=O)N3c3cccc(OCCN(C)C)c3)ccc2[nH]1 (centres unmarked) [Entry 159, methyl {5-[2-(3-{[2-(dimethylamino)ethyl]oxy}phenyl)-1-hydroxy-3-oxo-2,3-dihydro-1H-isoindol-1-yl]-1H-benzimidazol-2-yl}carbamate]",1000 to 10000,100 to 1000,,
"COC(=O)Nc1nc2cc(C3(O)c4ccccc4C(=O)N3CC3CCCO3)ccc2[nH]1 (centres unmarked) [Entry 216, methyl {5-[1-hydroxy-3-oxo-2-(tetrahydrofuran-2-ylmethyl)-2,3-dihydro-1H-isoindol-1-yl]-1H-benzimidazol-2-yl}carbamate]",100 to 1000,100 to 1000,,
"CCCOC(=O)Nc1nc2cc(C3(O)c4ccccc4C(=O)N3Cc3ccccc3)ccc2[nH]1 (centres unmarked) [Entry 127, propyl {5-[1-hydroxy-3-oxo-2-(phenylmethyl)-2,3-dihydro-1H-isoindol-1-yl]-1H-benzimidazol-2-yl}carbamate]",< 100,< 100,,
"O=C(CCCN1CCCCC1)Nc1nc2cc(C3(O)c4ccccc4C(=O)N3c3cccc(Oc4ccccc4)c3)ccc2[nH]1 (centres unmarked) [Entry 319, N-(5-{1-hydroxy-3-oxo-2-[3-(phenyloxy)phenyl]-2,3-dihydro-1H-isoindol-1-yl}-1H-benzimidazol-2-yl)-4-piperidin-1-ylbutanamide]",,,< 100,< 100
"COC(=O)Nc1nc2cc(C3(O)c4ccccc4C(=O)N3C(C)c3ccc(C)s3)ccc2[nH]1 (centres unmarked) [Entry 201, methyl (5-{1-hydroxy-2-[1-(5-methyl-2-thienyl)ethyl]-3-oxo-2,3-dihydro-1H-isoindol-1-yl}-1H-benzimidazol-2-yl)carbamate]",< 100,< 100,,
"C=Cc1cccc(N2C(=O)c3ccccc3C2(O)c2ccc3[nH]c(NC(=O)OC)nc3c2)c1F (centres unmarked) [Entry 366, methyl {5-[2-(3-ethenyl-2-fluorophenyl)-1-hydroxy-3-oxo-2,3-dihydro-1H-isoindol-1-yl]-1H-benzimidazol-2-yl}carbamate]",,,< 100,< 100
"COCCOc1cccc(N2C(=O)c3ccccc3C2(O)c2ccc3[nH]c(NC(=O)OC)nc3c2)c1 (centres unmarked) [Entry 211, methyl {5-[1-hydroxy-2-(3-{[2-(methyloxy)ethyl]oxy}phenyl)-3-oxo-2,3-dihydro-1H-isoindol-1-yl]-1H-benzimidazol-2-yl}carbamate]",1000 to 10000,1000 to 10000,,
"CC(C)(C)OC(=O)N1CCC(COC(=O)Nc2nc3cc(C4(O)c5ccccc5C(=O)N4Cc4ccccc4)ccc3[nH]2)CC1 (centres unmarked) [Entry 315, 1,1-dimethylethyl 4-({[({5-[1-hydroxy-3-oxo-2-(phenylmethyl)-2,3-dihydro-1H-isoindol-1-yl]-1H-benzimidazol-2-yl}amino)carbonyl]oxy}methyl)piperidine-1-carboxylate]",,,100 to 1000,100 to 1000
"COc1cccc(N2C(=O)c3ccccc3C2(O)c2ccc3[nH]c(Nc4cnccn4)nc3c2)c1 (centres unmarked) [Entry 391, 3-hydroxy-2-[3-(methyloxy)phenyl]-3-[2-(pyrazin-2-ylamino)-1H-benzimidazol-5-yl]-2,3-dihydro-1H-isoindol-1-one]",,,< 100,< 100
"COC(=O)Nc1nc2cc(C3(O)c4ccccc4C(=O)N3c3cccc(S(N)(=O)=O)c3)ccc2[nH]1 (centres unmarked) [Entry 236, methyl (5-{2-[3-(aminosulfonyl)phenyl]-1-hydroxy-3-oxo-2,3-dihydro-1H-isoindol-1-yl}-1H-benzimidazol-2-yl)carbamate]",100 to 1000,100 to 1000,,
"CC(C)(CN1CCCCC1)C(=O)Nc1nc2ccc(C3(O)c4ccccc4C(=O)N3Cc3ccccc3)cc2[nH]1 (centres unmarked) [Entry 286, N-{6-[1-hydroxy-3-oxo-2-(phenylmethyl)-2,3-dihydro-1H-isoindol-1-yl]-1H-benzimidazol-2-yl}-2,2-dimethyl-3-piperidin-1-ylpropanamide]",,,1000 to 10000,1000 to 10000
"COC(=O)Nc1nc2cc(C(=O)c3ccccc3C(=O)NOc3ccccc3)ccc2[nH]1 [Entry 272, methyl {5-[(2-{[(phenyloxy)amino]carbonyl}phenyl)carbonyl]-1H-benzimidazol-2-yl}carbamate]",,,< 100,< 100
"O=C(Nc1nc2ccc(C3(O)c4ccccc4C(=O)N3c3cccc(Cl)c3F)cc2[nH]1)OCCN1CCOCC1 (centres unmarked) [Entry 308, 2-morpholin-4-ylethyl {6-[2-(3-chloro-2-fluorophenyl)-1-hydroxy-3-oxo-2,3-dihydro-1H-isoindol-1-yl]-1H-benzimidazol-2-yl}carbamate]",,,< 100,< 100
"O=C1COc2ccc(C(=O)c3ccccc3-c3nc4ccccc4[nH]3)cc2N1 [Entry 49, 6-{[2-(1H-benzimidazol-2-yl)phenyl]carbonyl}-2H-1,4-benzoxazin-3(4H)-one]",≥ 10000,≥ 10000,,
"COC(=O)Nc1nc2ccc(C(=O)c3ccccc3C(=O)Nc3cccc(F)c3)cc2[nH]1 [Entry 396, methyl {6-[(2-{[(3-fluorophenyl)amino]carbonyl}phenyl)carbonyl]-1H-benzimidazol-2-yl}carbamate]",,,< 100,
"C#Cc1cccc(NC(=O)c2ccccc2C(=O)c2ccc3nc(NC(=O)OC)[nH]c3c2)c1 [Entry 400, methyl {6-[(2-{[(3-ethynylphenyl)amino]carbonyl}phenyl)carbonyl]-1H-benzimidazol-2-yl}carbamate]",,,< 100,
"COC(=O)Nc1nc2ccc(C(=O)c3ccccc3C(=O)NCc3ccsc3)cc2[nH]1 [Entry 405, methyl {6-[(2-{[(3-thienylmethyl)amino]carbonyl}phenyl)carbonyl]-1H-benzimidazol-2-yl}carbamate]",,,< 100,
"COC(=O)Nc1nc2ccc(C(=O)c3ccccc3C(=O)Nc3cccc(Br)c3F)cc2[nH]1 [Entry 412, methyl {6-[(2-{[(3-bromo-2-fluorophenyl)amino]carbonyl}phenyl)carbonyl]-1H-benzimidazol-2-yl}carbamate]",,,< 100,
"COC(=O)Nc1nc2ccc(C(=O)c3ccccc3C(=O)Nc3cc(Cl)ccc3C)cc2[nH]1 [Entry 415, methyl {6-[(2-{[(5-chloro-2-methylphenyl)amino]carbonyl}phenyl)carbonyl]-1H-benzimidazol-2-yl}carbamate]",,,< 100,
"COC(=O)Nc1nc2ccc(C(=O)c3ccccc3C(=O)Nc3cccc(C(C)C)c3)cc2[nH]1 [Entry 404, methyl (6-{[2-({[3-(1-methylethyl)phenyl]amino}carbonyl)phenyl]carbonyl}-1H-benzimidazol-2-yl)carbamate]",,,< 100,
"COC(=O)Nc1nc2ccc(C(=O)c3ccccc3C(=O)Nc3cccc(I)c3F)cc2[nH]1 [Entry 417, methyl {6-[(2-{[(2-fluoro-3-iodophenyl)amino]carbonyl}phenyl)carbonyl]-1H-benzimidazol-2-yl}carbamate]",,,< 100,
"COC(=O)Nc1nc2ccc(C(=O)c3ccccc3C(=O)Nc3cc(Br)ccc3C)cc2[nH]1 [Entry 416, methyl {6-[(2-{[(5-bromo-2-methylphenyl)amino]carbonyl}phenyl)carbonyl]-1H-benzimidazol-2-yl}carbamate]",,,< 100,
"CCc1cccc(NC(=O)c2ccccc2C(=O)c2ccc3nc(NC(=O)OC)[nH]c3c2)c1 [Entry 399, methyl {6-[(2-{[(3-ethylphenyl)amino]carbonyl}phenyl)carbonyl]-1H-benzimidazol-2-yl}carbamate]",,,< 100,
"COC(=O)Nc1nc2ccc(C(=O)c3ccccc3C(=O)Nc3cc(Br)ccc3F)cc2[nH]1 [Entry 409, methyl {6-[(2-{[(5-bromo-2-fluorophenyl)amino]carbonyl}phenyl)carbonyl]-1H-benzimidazol-2-yl}carbamate]",,,< 100,
"COC(=O)Nc1nc2ccc(C(=O)c3ccccc3C(=O)Nc3cccc(I)c3)cc2[nH]1 [Entry 403, methyl {6-[(2-{[(3-iodophenyl)amino]carbonyl}phenyl)carbonyl]-1H-benzimidazol-2-yl}carbamate]",,,< 100,
"COC(=O)Nc1nc2ccc(C(=O)c3ccccc3C(=O)Nc3cccc(C)c3)cc2[nH]1 [Entry 393, methyl {6-[(2-{[(3-methylphenyl)amino]carbonyl}phenyl)carbonyl]-1H-benzimidazol-2-yl}carbamate]",,,< 100,

# Reference: patent US7846959B2, “Raf modulators and methods of use” (Exelixis, Inc., priority 2004, dated 2010)
